Literature values as cited in patent US20050261237A1, “Nucleoside phosphonate analogs” (priority 2003, published 2005).

Tests used:
[1] = biological target: PNP enzyme from Mycobacterium tuberculosis (MtPNP) (Mycobacterium tuberculosis, UniProt P9WP01); settings: Lewandowics A. et al., Biochemistry (2003) 42, 6057
HIV = settings: described in the literature; 61.1 with Base=G

Chain of PNP enzyme from Mycobacterium tuberculosis (MtPNP) (P9WP01 whole entry): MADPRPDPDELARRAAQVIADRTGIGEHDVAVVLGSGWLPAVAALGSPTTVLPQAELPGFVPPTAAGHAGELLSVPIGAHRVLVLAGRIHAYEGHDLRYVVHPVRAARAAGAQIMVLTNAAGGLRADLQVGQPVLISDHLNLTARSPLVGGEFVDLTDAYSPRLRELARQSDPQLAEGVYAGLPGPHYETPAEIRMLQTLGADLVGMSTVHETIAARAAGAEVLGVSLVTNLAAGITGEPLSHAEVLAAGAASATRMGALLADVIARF

SMILES	inhibition of the PNP enzyme from Mycobacterium tuberculosis (MtPNP) [1]	anti-HIV activity (HIV)
Nc1nc2c(CN3C[C@H](CO)[C@@H](O)C3)c[nH]c2c(=O)[nH]1 [DADMe-ImmG]	highly potent	–
Nc1nc(=O)c2ncn([C@@H]3C[C@H](CO)[C@H]3CO)c2[nH]1 [lubocavir]	–	30 µM
